Results published in ChEMBL document CHEMBL3046899, “2D-QSAR of non-benzodiazepines to benzodiazepines receptor (BZR)” (Med Chem Res, 2009).

Biological target: GABA-A receptor; anion channel
Assay: Displacement of [3H]flunitrazepam from Rattus norvegicus (rat) brain GABA-A receptor benzodiazepine site

**Q.** Which pIC50 does the source give for CCCc1c(OC)nc2nc(C(=O)c3ccccc3)cn2c1CC here?
**A.** 7.328

**Q.** For CCc1c(OC)nc2nc(C(=O)c3ccccc3)cn2c1CC, which pIC50 is on record?
**A.** 7.252

Biological target: not listed separately
Assay: Binding affinity to GABA-A receptor benzodiazepine site (unknown origin)
Set-up: species or system Homo sapiens

**Q.** For CCOC(=O)c1ncc2[nH]c3ccc(OCc4ccccc4)cc3c2c1COC, which pIC50 is on record?
**A.** 9

**Q.** With Nc1cc2c(cn1)[nH]c1ccccc12 as the molecule, how does the pIC50 read?
**A.** 4.6

**Q.** Which pIC50 does the source give for S=C=Nc1cc2c(cn1)[nH]c1ccccc12 here?
**A.** 8.1

**Q.** Which pIC50 does the source give for CC(=O)C(=O)c1cc2c(cn1)[nH]c1ccccc12 here?
**A.** 8

**Q.** Which pIC50 does the source give for Oc1cc2c(cn1)[nH]c1ccccc12 here?
**A.** 5.4

**Q.** With CCOC(=O)c1cc2c(cn1)[nH]c1ccccc12 as the molecule, how does the pIC50 read?
**A.** 8.3

**Q.** With CCc1nc(C(=O)OC)cc2c1[nH]c1ccccc12 as the molecule, how does the pIC50 read?
**A.** 5.12

**Q.** For CC(C)(C)COC(=O)c1cc2c(cn1)[nH]c1ccccc12, which pIC50 is on record?
**A.** 6.12

**Q.** Which pIC50 does the source give for CC(C)Oc1cc2c(cn1)[nH]c1ccccc12 here?
**A.** 6.29

**Q.** With CCCCOc1cc2c(cn1)[nH]c1ccccc12 as the molecule, how does the pIC50 read?
**A.** 7.01

**Q.** For O=[N+]([O-])c1cc2c(cn1)[nH]c1ccccc12, which pIC50 is on record?
**A.** 6.9

**Q.** Which pIC50 does the source give for COc1cc2c(cn1)[nH]c1ccccc12 here?
**A.** 6.91

**Q.** For Clc1cc2c(cn1)[nH]c1ccccc12, which pIC50 is on record?
**A.** 7.35

**Q.** Which pIC50 does the source give for CCOc1cc2c(cn1)[nH]c1ccccc12 here?
**A.** 7.62

**Q.** Which pIC50 does the source give for CCCOc1cc2c(cn1)[nH]c1ccccc12 here?
**A.** 7.96

**Q.** With CCCC(=O)c1cc2c(cn1)[nH]c1ccccc12 as the molecule, how does the pIC50 read?
**A.** 7.64

**Q.** For CCCCc1cc2c(cn1)[nH]c1ccccc12, which pIC50 is on record?
**A.** 6.64

**Q.** Which pIC50 does the source give for COC(=O)c1cc2c(cn1)[nH]c1ccccc12 [BETA-CCM] here?
**A.** 8.3

**Q.** For Cc1nccc2c1[nH]c1ccccc12 [HARMAN], which pIC50 is on record?
**A.** 4.91

**Q.** Which pIC50 does the source give for c1ccc2c(c1)[nH]c1cnccc12 [NORHARMANE] here?
**A.** 5.79

Biological target: GABA-A receptor; anion channel
Assay: Binding affinity to Rattus norvegicus (rat) brain GABA-A receptor benzodiazepine site

**Q.** For CNc1nc2c(N(C)C)ncnc2n1Cc1cccc(C)c1, which pIC50 is on record?
**A.** 5.14
